Experimental data taken from patent publication US8012944B2, “Method for treating cancer using IAP antisense oligomer and chemotherapeutic agent” (Pharmascience Inc., priority 2003, dated 2011).
Oligonucleotides are written 5' to 3', each unit as a sugar letter and its base; * is a phosphorothioate linkage, no mark a phosphodiester; rarer units and linkages stand in square brackets, end groups in braces. Plain capitals give the bases only. d = 2'-deoxy (DNA); m = 2'-O-methyl

Experiments:
XIAP mRNA [1] = experiment: XIAP mRNA knock-down in H460 cells (real-time RT-PCR / TaqMan); assay type: cell-based, human
Protocol: RNA was extracted from cells lysed in RLT buffer (QIAGEN, Valencia, Calif.), and purified using QIAGEN RNeasy columns/kits. Real-time quantitative PCR was performed on a Perkin-Elmer ABI 7700 Prism PCR machine. RNA was reverse transcribed and amplified according to the TaqMan Universal PCR Master Mix protocol of PE Biosystems, using primers and probes designed to specifically recognize XIAP, HIAP1, survivin, or GAPDH. For human survivin, the forward primer was 5′-[…]-3′ (SEQ ID NO: 263), the reverse primer was 5′-GAAAGGAAAGCGCAACCG-3′ (SEQ ID NO: 264), and the probe was 5′-(FAM)[…](TAMRA)-3′ (SEQ ID NO: 265). For human HIAP1, the forward primer was 5′-[…]-3′ (SEQ ID NO: 266), the reverse primer was 5′-[…]-3′ (SEQ ID NO: 267), and the probe was 5′-(FAM)[…](TAMRA)-3′ (SEQ ID NO: 268). For human XIAP, the forward primer was 5′-[…]-3′ (SEQ ID NO: 269), the reverse primer was 5′-[…]-3′ (SEQ ID NO: 270), and the probe was 5′-(FAM)[…](TAMRA)-3′ (SEQ ID NO: 271). For human GAPDH, the forward primer was 5′-GAAGGTGAAGGTCGGAGTC-3′ (SEQ ID NO: 272), the reverse primer was 5′-GAAGATGGTGATGGGATTC-3′ (SEQ ID NO: 273), and the probe was 5′-(JOE)[…](TAMRA)-3′ (SEQ ID NO: 274). FAM is 6-carboxyfluoroscein, JOE is 6-carboxy-4,5-dichloro-2,7-dimethoxyfluoroscein, and TAMRA is 6-carboxy-N,N,N′,N′-tetramethylrhodamine. FAM and JOE are 5′ reporter dyes, while TAMRA is a 3′ quencher dye.
Relative quantification of gene expression was performed as described in the PE Biosystems manual using GAPDH as an internal standard. The comparative Ct (cycle threshold) method was used for relative quantitation of IAP mRNA levels compared to GAPDH mRNA levels. Briefly, real-time fluorescence measurements were taken at each PCR cycle and the threshold cycle (Ct) value for each sample was calculated by determining the point at which fluorescence exceeded a threshold limit of 30 times the baseline standard deviation. The average baseline value and the baseline SD are calculated starting from the third cycle baseline value and stopping at the baseline value three cycles before the signal starts to exponentially rise. The PCR primers and/or probes for the specific IAPs were designed to span at least one exon-intron boundary separated by 1 kb or more of genomic DNA, to reduce the possibility of amplifying and detecting genomic DNA contamination. The specificity of the signal, and possible contamination from DNA, were verified by treating some RNA samples with either DNase or RNase, prior to performing the reverse transcription and PCR reaction steps.
A portion of the 96 nucleobase oligomers depicted in Table 2 were rescreened for their ability to knock-down XIAP mRNA in NCI-H460 cells at […] post-transfection.
One day prior to transfection, H460 cells were plated in 6- or 96-well tissue culture plates. Phosphorothioate antisense oligonucleotides were delivered into cells with Lipofectamine 2000 (Life Technologies) in the form of liposome-oligonucleotide complexes. Following a 4.5 or 6 h transfection, the transfection medium was replaced with RPMI medium containing 10% FBS, and the cells incubated for another 24 or 48 h.
Total RNA from H460 cells treated with liposome-oligonucleotide complexes for 6 hours was immediately isolated using RNeasy mini spin columns and DNase treatment (QIAGEN, Valencia, Calif.). Specific XIAP mRNA was measured using a real-time quantitative RT-PCR method. […]

XIAP mRNA [2] = experiment: as above; assay type: cell-based, human; conditions: 2 × 2 MBO; NCI-H460 cells, 9 hours post-transfection; relative level (mock control 1.01)

Sequence: CATCTTGGATACTGTCTTT (antisense; sugars from the 5' end m2 d15 m2, backbone, methylation of C and T or U not given here; further chemistry not fully specified) [Code D10]
- XIAP down-regulation H460 RNA (XIAP mRNA [1]): 55%
- XIAP RNA (XIAP mRNA [2]): 0.54

Sequence: ACACGACCGCTAAGAAACA (antisense ACACGACCGCNAAGAAACA; sugars from the 5' end m2 d15 m2, linkages s1 o16 s1 (s phosphorothioate, o phosphodiester), the base at N not given here) [Code H2]
- XIAP down-regulation H460 RNA (XIAP mRNA [1]): 46%
- XIAP RNA (XIAP mRNA [2]): 0.56

Sequence: GTGTCTGATATATCTACAA (antisense; sugars from the 5' end m2 d15 m2, backbone and T or U not given here; further chemistry not fully specified) [Code H5]
- XIAP down-regulation H460 RNA (XIAP mRNA [1]): 39%
- XIAP RNA (XIAP mRNA [2]): 0.59

Sequence: AAAGCATAAAATCCAGCTC (antisense; sugars from the 5' end m2 d15 m2, backbone, methylation of C and T or U not given here; further chemistry not fully specified) [Code C8]
- XIAP down-regulation H460 RNA (XIAP mRNA [1]): 16%
- XIAP RNA (XIAP mRNA [2]): 1.01

Sequence: GCAGAATAAAACTAATAAT (antisense; sugars from the 5' end m2 d15 m2, backbone and T or U not given here; further chemistry not fully specified) [Code D2]
- XIAP down-regulation H460 RNA (XIAP mRNA [1]): 39%
- XIAP RNA (XIAP mRNA [2]): 0.66

Sequence: AGATGGTATCATCAATTCT (antisense; sugars from the 5' end m2 d15 m2, backbone, methylation of C and T or U not given here; further chemistry not fully specified) [Code F9]
- XIAP down-regulation H460 RNA (XIAP mRNA [1]): 19%
- XIAP RNA (XIAP mRNA [2]): 0.97

Sequence: GGCCAGTTCTGAAAGGACT (antisense; sugars from the 5' end m2 d15 m2, backbone and T or U not given here; further chemistry not fully specified) [Code D6]
- XIAP down-regulation H460 RNA (XIAP mRNA [1]): 60%
- XIAP RNA (XIAP mRNA [2]): 0.39

Sequence: AAGTCAGTTCACATCACAC (antisense; sugars from the 5' end m2 d15 m2, linkages s1 o16 s1 (s phosphorothioate, o phosphodiester), methylation of C not given here) [Code F11]
- XIAP down-regulation H460 RNA (XIAP mRNA [1]): 64%
- XIAP RNA (XIAP mRNA [2]): 0.36

Sequence: GAGTAAAAAAAATGGATAA (mG*mAdGdTdAdAdAdAdAdAdAdAdTdGdGdAdTmA*mA; antisense) [Code G11]
- XIAP down-regulation H460 RNA (XIAP mRNA [1]): 33%
- XIAP RNA (XIAP mRNA [2]): 0.67

Sequence: GTCAAATCATTAATTAGGA (antisense; sugars from the 5' end m2 d15 m2, backbone and T or U not given here; further chemistry not fully specified) [Code B2]
- XIAP down-regulation H460 RNA (XIAP mRNA [1]): 55%
- XIAP RNA (XIAP mRNA [2]): 0.45

Sequence: TTACCACATCATTCAAGTC (antisense; sugars from the 5' end m2 d15 m2, backbone and T or U not given here; further chemistry not fully specified) [Code F2]
- XIAP down-regulation H460 RNA (XIAP mRNA [1]): 34%
- XIAP RNA (XIAP mRNA [2]): 0.64

Sequence: TACACTTAGAAATTAAATC (antisense; sugars from the 5' end m2 d15 m2, backbone, methylation of C and T or U not given here; further chemistry not fully specified) [Code A12]
- XIAP down-regulation H460 RNA (XIAP mRNA [1]): 46%
- XIAP RNA (XIAP mRNA [2]): 0.54

Sequence: ATTCAAGGGATCAAAGTTG (antisense; sugars from the 5' end m2 d15 m2, backbone and T or U not given here; further chemistry not fully specified) [Code A2]
- XIAP down-regulation H460 RNA (XIAP mRNA [1]): 58%
- XIAP RNA (XIAP mRNA [2]): 0.42

Sequence: AATGTGAAACACAAGCAAC (antisense AANGNGAAACACAAGCAAC; sugars from the 5' end m2 d15 m2, linkages s1 o16 s1 (s phosphorothioate, o phosphodiester), the base at N not given here) [Code C3]
- XIAP down-regulation H460 RNA (XIAP mRNA [1]): 43%
- XIAP RNA (XIAP mRNA [2]): 0.55

Sequence: TGAATTAATTTTTAATATC (antisense; sugars from the 5' end m2 d15 m2, backbone and T or U not given here; further chemistry not fully specified) [Code H1]
- XIAP down-regulation H460 RNA (XIAP mRNA [1]): 13%
- XIAP RNA (XIAP mRNA [2]): 0.87

Sequence: ATTCGCACAAGTACGTGTT (antisense; sugars from the 5' end m2 d15 m2, backbone, methylation of C and T or U not given here; further chemistry not fully specified) [Code D12]
- XIAP down-regulation H460 RNA (XIAP mRNA [1]): 77%
- XIAP RNA (XIAP mRNA [2]): 0.23

Sequence: AGTTCTCAAAAGATAGTCT (antisense; sugars from the 5' end m2 d15 m2, backbone and T or U not given here; further chemistry not fully specified) [Code G5]
- XIAP down-regulation H460 RNA (XIAP mRNA [1]): 30%
- XIAP RNA (XIAP mRNA [2]): 0.68

Sequence: TAGATCTGGAACCAGAACC (antisense; sugars from the 5' end m2 d15 m2, backbone, methylation of C and T or U not given here; further chemistry not fully specified) [Code C10]
- XIAP down-regulation H460 RNA (XIAP mRNA [1]): 53%
- XIAP RNA (XIAP mRNA [2]): 0.56

Sequence: GCGGCCCAAAACAAAGAAG (antisense CCGGCCCAAAACAAAGAAG; sugars from the 5' end m2 d15 m2, linkages s1 o16 s1 (s phosphorothioate, o phosphodiester), methylation of C not given here) [Code C7]
- XIAP down-regulation H460 RNA (XIAP mRNA [1]): 72%
- XIAP RNA (XIAP mRNA [2]): 0.27

Sequence: TCGGGTATATGGTGTCTGA (antisense; chemistry not fully specified) [Code A6]
- XIAP down-regulation H460 RNA (XIAP mRNA [1]): 72%
- XIAP RNA (XIAP mRNA [2]): 0.27

Sequence: GAAACCACATTTAACAGTT (antisense; sugars from the 5' end m2 d15 m2, backbone, methylation of C and T or U not given here; further chemistry not fully specified) [Code H12]
- XIAP down-regulation H460 RNA (XIAP mRNA [1]): 52%
- XIAP RNA (XIAP mRNA [2]): 0.48

Sequence: ATGATCTCTGCTTCCCAGA (antisense; sugars from the 5' end m2 d15 m2, backbone and T or U not given here; further chemistry not fully specified) [Code E5]
- XIAP down-regulation H460 RNA (XIAP mRNA [1]): 46%
- XIAP RNA (XIAP mRNA [2]): 0.52

Sequence: ACATAGTGTTTTGCCACTT (antisense; sugars from the 5' end m2 d15 m2, backbone, methylation of C and T or U not given here; further chemistry not fully specified) [Code F12]
- XIAP down-regulation H460 RNA (XIAP mRNA [1]): 74%
- XIAP RNA (XIAP mRNA [2]): 0.26

Sequence: TTAGCAAAATATGTTTTAA (antisense; sugars from the 5' end m2 d15 m2, backbone and T or U not given here; further chemistry not fully specified) [Code G1]
- XIAP down-regulation H460 RNA (XIAP mRNA [1]): 33%
- XIAP RNA (XIAP mRNA [2]): 0.67

Sequence: TGTTCTAACAGATATTTGC (antisense; sugars from the 5' end m2 d15 m2, backbone, methylation of C and T or U not given here; further chemistry not fully specified) [Code G8]
- XIAP down-regulation H460 RNA (XIAP mRNA [1]): 49%
- XIAP RNA (XIAP mRNA [2]): 0.64
